Results reported in patent US9701689B2, “Substituted pyridines and pyridazines as CCR10 receptor inhibitors” (KYOWA HAKKO KIRIN CO., LTD., priority 2012, dated 2017).

Legend:
human CCR10 = target: T1, human CCR10 (Homo sapiens, UniProt P46092); assay: CCR10 antagonistic effect: calcium assay of human CCR10 (CTACK-induced increase of intracellular calcium in hCCR10G16 cells); format: cell-based; conditions: at a concentration of not more than 1000 nmol/L; human CCR10-expressing hCCR10G16 cells, 300 nmol/L CTACK added; read-out: inhibition of increase in the calcium ion concentration
T1 construct: expressed in transfected cells; host or cells: KJMGER8 cells (Namalwa cell-derived line), beta-estradiol-induced; hCCR10G16 cells
T1 sequence (P46092 1-362): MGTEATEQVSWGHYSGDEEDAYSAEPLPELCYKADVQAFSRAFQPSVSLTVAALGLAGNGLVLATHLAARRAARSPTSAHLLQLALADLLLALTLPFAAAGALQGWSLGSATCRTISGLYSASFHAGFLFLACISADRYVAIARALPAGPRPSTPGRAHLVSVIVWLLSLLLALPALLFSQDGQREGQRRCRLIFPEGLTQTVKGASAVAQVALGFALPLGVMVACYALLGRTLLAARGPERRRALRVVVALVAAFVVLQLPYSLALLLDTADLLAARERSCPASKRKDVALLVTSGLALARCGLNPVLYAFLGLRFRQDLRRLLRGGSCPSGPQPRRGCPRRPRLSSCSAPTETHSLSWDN
Summary of the method: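 Inhibition of CTACK-evoked calcium flux (max minus min Fluo-3 fluorescence over ~5 min, FDSS) was calculated against control in β-estradiol-induced human CCR10/Gα16 KJMGER8 cells, after 30 min compound preincubation at 37 °C; CTACK added from a 300 nmol/L solution.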

[1] = system: Dinitrofluorobenzene-induced Auricle Edema Reaction in Mouse; assay: Suppressive action on dinitrofluorobenzene-induced auricle edema reaction in mouse; format: in vivo; conditions: BALB/c mice; for suppressive action on auricle edema response (in words): topical application in acetone, summary of Table 28; for inhibition in vivo at 1 %: test compound concentration 1% (w/v) in acetone
Description: [Experimental Example 2] Suppressive Action on Dinitrofluorobenzene-induced Auricle Edema Reaction in Mouse
BALB/c mice (female, supplied by CHARLES RIVER LABORATORIES JAPAN, INC.) were purchased at the age of 5 weeks. After quarantine and acclimation, mice showing smooth body weight increase and free of abnormality in appearance were used and the test was started at the age of 7 weeks. The mice were housed in a breeding room at room temperature 19-25° C., humidity 30-70%, 12 hr lighting per day (7 a.m.-7 p.m.) with 3 mice in each plastic gauge, and bred on with free ingestion of a commercially available solid feed and water.
Two days before the test, the abdomen of the BALB/c mice was shaved, and the mice were immunized by applying 100 μL of a solution {concentration 0.5% [weight (w)/volume (v) %]} of dinitrofluorobenzene (manufactured by Nacalai Tesque) in acetone (manufactured by Wako Pure Chemical Industries, Ltd.) to the shaved part. The reaction was induced by applying dinitrofluorobenzene-acetone solution [concentration 0.2% (w/v %)] to the front and the back of auricle (10 μL to each, total 20 μL) on day 5 after the immunization. A test compound dissolved in acetone at concentration of 0.1% or 1% (w/v %) was administered by applying same to the front and the back of auricle (10 μL to each, total 20 μL) 1 hr before and 3 hr after induction of the reaction. After application, the applied part was air-dried with a dryer.
The group applying administered with the test compound was taken as a test compound administration group, and the group applying administered with acetone as a solvent instead of the test compound was taken as a solvent administration group. Also, the group free of immunization and reaction induction but applying administered with acetone instead of the test compound was taken as a normal group. The thickness of auricle was measured using a dial thickness gauge (G-1A manufactured by OZAKI MFG. CO., LTD.) immediately before and 24 hr after induction of the reaction, and the difference thereof was taken as auricle edema. The suppression rate (%) of auricle edema was calculated according to the following formula.

[2] = Mus musculus, topical, applied to auricle 1 hr before and 3 hr after induction, measured 24 hr after induction, read-out: auricle edema suppression rate (%)

SMILES	inhibition at up to 1 µM (human CCR10) [%]	suppressive action on auricle edema response (in words) [1]	inhibition in vivo at 1 % [1, 2] [%]	inhibition in vivo at 0.1 % ([1]; Mus musculus, topical, test compound concentration 0.1% (w/v) in acetone, applied to auricle 1 hr before and 3 hr after induction, measured 24 hr after induction, read-out: auricle edema suppression rate (%)) [%]
Cc1cc(NS(=O)(=O)c2ncc(C(=O)N3CCC(c4ccc(F)cc4)CC3)c(Nc3ccccc3C)c2C)sn1 [Compound 241, 5-[4-(4-fluorophenyl)piperidine-1-carbonyl]-3-methyl-N-(3-methylisothiazol-5-yl)-4-(o-tolylamino)pyridine-2-sulfonamide]	≥ 50	showed a suppressive action on auricle edema response	27	–
Cc1c(S(=O)(=O)Nc2ccon2)ncc(C(=O)N2CCC(c3ccc(F)cc3)CC2)c1Nc1cccc(F)c1 [Compound 233, 5-[4-(4-fluorophenyl)piperidine-1-carbonyl]-4-(3-fluorophenylamino)-N-(isoxazol-3-yl)-3-methylpyridine-2-sulfonamide]	≥ 50	showed a suppressive action on auricle edema response	24	–
Cc1c(S(=O)(=O)Nc2ccon2)ncc(C(=O)N2CCC(c3ccc(F)cc3)CC2)c1Nc1ccc(Cl)cc1 [Compound 259, 4-(4-chlorophenylamino)-5-[4-(4-fluorophenyl)piperidine-1-carbonyl]-N-(isoxazol-3-yl)-3-methylpyridine-2-sulfonamide]	≥ 50	showed a suppressive action on auricle edema response	38	–
Cc1cc(Cl)ccc1Nc1cc(S(=O)(=O)NC(=O)NC2CC2)ncc1C(=O)N1CCC(c2ccc(F)cc2)CC1 [Compound 21, 4-(4-chloro-2-methylphenylamino)-N-(cyclopropylcarbamoyl)-5-[4-(4-fluorophenyl)piperidine-1-carbonyl]pyridine-2-sulfonamide]	≥ 50	showed a suppressive action on auricle edema response	–	26
NS(=O)(=O)c1ncc(C(=O)N2CCC(c3ccc(F)cc3)CC2)c(Nc2cccc(Cl)c2)c1Cl [Compound 176, 3-chloro-4-(3-chlorophenylamino)-5-[4-(4-fluorophenyl)piperidine-1-carbonyl]pyridine-2-sulfonamide]	≥ 50	showed a suppressive action on auricle edema response	42	–
CCNC(=O)NS(=O)(=O)c1cc(Nc2ccc(F)cc2C)c(C(=O)N2CCC(c3ccc(F)cc3)CC2)cn1 [Compound 22, N-(ethylcarbamoyl)-4-(4-fluoro-2-methylphenylamino)-5-[4-(4-fluorophenyl)piperidine-1-carbonyl]pyridine-2-sulfonamide]	≥ 50	showed a suppressive action on auricle edema response	47	–
Cc1cc(F)ccc1Nc1c(C(=O)N2CCC(c3ccc(F)cc3)CC2)cnc(S(N)(=O)=O)c1Cl [Compound 25, 3-chloro-4-(4-fluoro-2-methylphenylamino)-5-[4-(4-fluorophenyl)piperidine-1-carbonyl]pyridine-2-sulfonamide]	≥ 50	showed a suppressive action on auricle edema response	47	–
NS(=O)(=O)c1ncc(C(=O)N2CCC(c3ccc(F)cc3)CC2)c(Nc2ccc(C(F)(F)F)cc2)c1Cl [Compound 291, 3-chloro-5-[4-(4-fluorophenyl)piperidine-1-carbonyl]-4-[4-(trifluoromethyl)phenylamino]pyridine-2-sulfonamide]	≥ 50	showed a suppressive action on auricle edema response	35	–
Cc1ccc(Cl)cc1Nc1c(C(=O)N2CCC(c3ccc(F)cc3)CC2)cnc(S(=O)(=O)Nc2ccon2)c1C [Compound 232, 4-(5-chloro-2-methylphenylamino)-5-[4-(4-fluorophenyl)piperidine-1-carbonyl]-N-(isoxazol-3-yl)-3-methylpyridine-2-sulfonamide]	≥ 50	showed a suppressive action on auricle edema response	39	–
Cc1cc(F)ccc1Nc1cc(S(=O)(=O)Nc2ccon2)ncc1C(=O)N1CCC(c2ccc(F)cc2)CC1 [Compound 11, 4-(4-fluoro-2-methylphenylamino)-5-[4-(4-fluorophenyl)piperidine-1-carbonyl]-N-(isoxazol-3-yl)pyridine-2-sulfonamide]	≥ 50	showed a suppressive action on auricle edema response	32	–
NS(=O)(=O)c1ncc(C(=O)N2CCC(c3ccc(F)cc3)CC2)c(Nc2ccc(Cl)cc2F)c1Cl [Compound 28, 3-chloro-4-(4-chloro-2-fluorophenylamino)-5-[4-(4-fluorophenyl)piperidine-1-carbonyl]pyridine-2-sulfonamide]	≥ 50	–	–	–
NS(=O)(=O)c1ncc(C(=O)N2CCC(c3ccc(F)cc3)CC2)c(Nc2ccc(Cl)nc2Cl)c1Cl [Compound 327, 3-chloro-4-(2,6-dichloropyridin-3-ylamino)-5-[4-(4-fluorophenyl)piperidine-1-carbonyl]pyridine-2-sulfonamide]	≥ 50	–	–	–
Cc1cc(NS(=O)(=O)c2ncc(C(=O)N3CCC(c4ccc(F)cc4)CC3)c(Nc3ccc(F)cc3C)c2Cl)on1 [Compound 41, 3-chloro-4-(4-fluoro-2-methylphenylamino)-5-[4-(4-fluorophenyl)piperidine-1-carbonyl]-N-(3-methylisoxazol-5-yl)pyridine-2-sulfonamide]	≥ 50	–	–	–
CC(=O)NC1CCN(S(=O)(=O)c2cc(Nc3ccc(F)cc3C)c(C(=O)N3CCC(c4ccc(F)cc4)CC3)cn2)C1 (stereo not shown) [Compound 7, N-{1-{4-(4-fluoro-2-methylphenylamino)-5-[4-(4-fluorophenyl)piperidine-1-carbonyl]pyridin-2-ylsulfonyl}pyrrolidin-3-yl}acetamide]	≥ 50	–	–	–
Cc1cccc(Nc2cc(S(N)(=O)=O)ncc2C(=O)N2CCC(c3ccc(F)cc3)CC2)c1F [Compound 76, 4-(2-fluoro-3-methylphenylamino)-5-[4-(4-fluorophenyl)piperidine-1-carbonyl]pyridine-2-sulfonamide]	≥ 50	–	–	–
Cc1c(S(=O)(=O)Nc2ccon2)ncc(C(=O)N2CCC(c3ccc(F)cc3)CC2)c1Nc1cc(F)ccc1Cl [Compound 274, 4-(2-chloro-5-fluorophenylamino)-5-[4-(4-fluorophenyl)piperidine-1-carbonyl]-N-(isoxazol-3-yl)-3-methylpyridine-2-sulfonamide]	≥ 50	–	–	–
COC(=O)C1CCCN1S(=O)(=O)c1cc(Nc2ccc(F)cc2C)c(C(=O)N2CCC(c3ccc(F)cc3)CC2)cn1 (stereo not shown) [Compound 116, methyl 1-{4-(4-fluoro-2-methylphenylamino)-5-[4-(4-fluorophenyl)piperidine-1-carbonyl]pyridin-2-ylsulfonyl}pyrrolidine-2-carboxylate]	≥ 50	–	–	–
